According to patent publication US20170190705A1, “Compositions and Methods for Inhibiting BMP” (THE BRIGHAM AND WOMAN'S HOSPITAL, INC., priority 2014, published 2017):

Assays:
Type in all cases: biochemical
EPH-A4 = EPH-A4 (Homo sapiens, UniProt P54764); assay: Kinome profiling EPH-A4; details: read-out: Inhibitory activity EPH-A4; for inhibition at 0.1 µM: 100 nM
Experimental: (§1) . The kinome-wide selectivity was determined following the methods previously reported by Mohedas et al., ACS Chem Biol 2013, 8, 1291-1302 and Sanvitale et al., PLoS One 2013, 8, e62721.

CAMK4 = molecular target: T1, CAMK4 (Homo sapiens, UniProt Q16566); assay: Kinome profiling CAMK4; details: read-out: Inhibitory activity CAMK4; for inhibition at 0.1 µM: 100 nM
T1 sequence (Q16566 1-473): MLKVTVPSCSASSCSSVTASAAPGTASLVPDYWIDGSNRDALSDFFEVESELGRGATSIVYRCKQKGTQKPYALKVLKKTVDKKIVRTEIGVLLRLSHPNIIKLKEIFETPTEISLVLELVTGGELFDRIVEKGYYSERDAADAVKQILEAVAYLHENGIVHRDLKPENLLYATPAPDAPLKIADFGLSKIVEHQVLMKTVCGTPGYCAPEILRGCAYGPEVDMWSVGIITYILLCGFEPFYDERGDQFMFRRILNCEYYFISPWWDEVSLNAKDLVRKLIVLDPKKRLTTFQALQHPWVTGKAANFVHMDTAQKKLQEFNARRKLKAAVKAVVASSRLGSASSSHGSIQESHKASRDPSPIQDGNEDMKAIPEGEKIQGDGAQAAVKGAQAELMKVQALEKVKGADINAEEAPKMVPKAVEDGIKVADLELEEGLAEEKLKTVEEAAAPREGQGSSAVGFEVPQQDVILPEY
Experimental: as §1

CK1-γ2 = CK1-γ2 (Homo sapiens, UniProt P78368); assay: Kinome profiling CK1-γ2; details: read-out: Inhibitory activity CK1-γ2; for inhibition at 0.1 µM: 100 nM
Experimental: as §1

TEC = molecular target: T2, TEC (Homo sapiens, UniProt P42680); assay: Kinome profiling TEC; details: read-out: Inhibitory activity TEC; for inhibition at 0.1 µM: 100 nM
T2 sequence (P42680 1-631): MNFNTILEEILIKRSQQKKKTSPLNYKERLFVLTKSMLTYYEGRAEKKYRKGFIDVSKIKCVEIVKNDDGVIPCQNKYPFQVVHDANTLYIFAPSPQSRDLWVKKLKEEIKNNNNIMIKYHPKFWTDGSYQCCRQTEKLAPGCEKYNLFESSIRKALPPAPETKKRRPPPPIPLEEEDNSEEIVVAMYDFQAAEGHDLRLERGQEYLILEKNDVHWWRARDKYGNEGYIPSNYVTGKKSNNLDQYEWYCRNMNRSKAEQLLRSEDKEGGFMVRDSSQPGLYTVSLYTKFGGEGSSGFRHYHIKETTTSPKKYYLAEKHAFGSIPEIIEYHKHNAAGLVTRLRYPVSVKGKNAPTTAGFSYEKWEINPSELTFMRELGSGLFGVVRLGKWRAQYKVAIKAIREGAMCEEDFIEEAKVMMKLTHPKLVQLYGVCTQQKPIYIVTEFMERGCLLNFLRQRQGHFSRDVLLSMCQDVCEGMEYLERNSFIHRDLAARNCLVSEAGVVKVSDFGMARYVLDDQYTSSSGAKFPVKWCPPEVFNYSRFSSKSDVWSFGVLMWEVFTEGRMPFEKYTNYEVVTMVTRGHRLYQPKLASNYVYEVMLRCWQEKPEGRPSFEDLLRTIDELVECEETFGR
Experimental: as §1

CDK2/cyclinE = CDK2/cyclinE (Homo sapiens, UniProt P24941); assay: Kinome profiling CDK2/cyclinE; details: read-out: Inhibitory activity CDK2/cyclinE; for inhibition at 0.1 µM: 100 nM
Experimental: as §1

JNK2 = JNK2 (Homo sapiens, UniProt P45984); assay: Kinome profiling JNK2; details: read-out: Inhibitory activity JNK2; for inhibition at 0.1 µM: 100 nM
Experimental: as §1

MRCK-β = MRCK-β (Homo sapiens, UniProt Q9Y5S2); assay: Kinome profiling MRCK-β; details: read-out: Inhibitory activity MRCK-β; for inhibition at 0.1 µM: 100 nM
Experimental: as §1

BRK = BRK (Homo sapiens, UniProt Q13882); assay: Kinome profiling BRK; details: read-out: Inhibitory activity BRK; for inhibition at 0.1 µM: 100 nM
Experimental: as §1

BRSK2 = molecular target: T3, BRSK2 (Homo sapiens, UniProt Q8IWQ3); assay: Kinome profiling BRSK2; details: read-out: Inhibitory activity BRSK2; for inhibition at 0.1 µM: 100 nM
T3 sequence (Q8IWQ3 1-736): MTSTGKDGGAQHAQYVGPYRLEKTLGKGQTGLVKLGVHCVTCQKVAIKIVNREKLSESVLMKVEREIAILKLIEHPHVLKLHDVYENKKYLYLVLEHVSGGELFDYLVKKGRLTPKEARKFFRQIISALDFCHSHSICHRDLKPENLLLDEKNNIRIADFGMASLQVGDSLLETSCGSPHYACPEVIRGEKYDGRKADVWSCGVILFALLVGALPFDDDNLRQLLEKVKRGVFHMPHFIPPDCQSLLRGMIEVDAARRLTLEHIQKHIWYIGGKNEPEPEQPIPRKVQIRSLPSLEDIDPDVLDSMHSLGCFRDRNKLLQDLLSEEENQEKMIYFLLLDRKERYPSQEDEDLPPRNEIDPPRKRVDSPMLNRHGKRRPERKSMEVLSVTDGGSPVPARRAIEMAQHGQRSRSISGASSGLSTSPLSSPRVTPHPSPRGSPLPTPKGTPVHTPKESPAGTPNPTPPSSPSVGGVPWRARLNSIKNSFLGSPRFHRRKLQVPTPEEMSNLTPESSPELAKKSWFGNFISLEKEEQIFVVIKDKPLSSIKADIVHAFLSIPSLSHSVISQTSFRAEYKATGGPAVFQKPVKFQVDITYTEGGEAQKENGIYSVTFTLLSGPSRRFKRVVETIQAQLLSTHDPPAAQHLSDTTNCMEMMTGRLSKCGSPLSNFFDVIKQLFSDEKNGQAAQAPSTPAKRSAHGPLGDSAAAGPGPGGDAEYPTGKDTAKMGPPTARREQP
Experimental: as §1

MNK2 = MNK2 (Homo sapiens, UniProt Q9HBH9); assay: Kinome profiling MNK2; details: read-out: Inhibitory activity MNK2; for inhibition at 0.1 µM: 100 nM
Experimental: as §1

PIM3 = PIM3 (Homo sapiens, UniProt Q86V86); assay: Kinome profiling PIM3; details: read-out: Inhibitory activity PIM3; for inhibition at 0.1 µM: 100 nM
Experimental: as §1

FYN = FYN (Homo sapiens, UniProt P06241); assay: Kinome profiling FYN; details: read-out: Inhibitory activity FYN; for inhibition at 0.1 µM: 100 nM
Experimental: as §1

Chain of MRCK-β (Q9Y5S2 whole entry): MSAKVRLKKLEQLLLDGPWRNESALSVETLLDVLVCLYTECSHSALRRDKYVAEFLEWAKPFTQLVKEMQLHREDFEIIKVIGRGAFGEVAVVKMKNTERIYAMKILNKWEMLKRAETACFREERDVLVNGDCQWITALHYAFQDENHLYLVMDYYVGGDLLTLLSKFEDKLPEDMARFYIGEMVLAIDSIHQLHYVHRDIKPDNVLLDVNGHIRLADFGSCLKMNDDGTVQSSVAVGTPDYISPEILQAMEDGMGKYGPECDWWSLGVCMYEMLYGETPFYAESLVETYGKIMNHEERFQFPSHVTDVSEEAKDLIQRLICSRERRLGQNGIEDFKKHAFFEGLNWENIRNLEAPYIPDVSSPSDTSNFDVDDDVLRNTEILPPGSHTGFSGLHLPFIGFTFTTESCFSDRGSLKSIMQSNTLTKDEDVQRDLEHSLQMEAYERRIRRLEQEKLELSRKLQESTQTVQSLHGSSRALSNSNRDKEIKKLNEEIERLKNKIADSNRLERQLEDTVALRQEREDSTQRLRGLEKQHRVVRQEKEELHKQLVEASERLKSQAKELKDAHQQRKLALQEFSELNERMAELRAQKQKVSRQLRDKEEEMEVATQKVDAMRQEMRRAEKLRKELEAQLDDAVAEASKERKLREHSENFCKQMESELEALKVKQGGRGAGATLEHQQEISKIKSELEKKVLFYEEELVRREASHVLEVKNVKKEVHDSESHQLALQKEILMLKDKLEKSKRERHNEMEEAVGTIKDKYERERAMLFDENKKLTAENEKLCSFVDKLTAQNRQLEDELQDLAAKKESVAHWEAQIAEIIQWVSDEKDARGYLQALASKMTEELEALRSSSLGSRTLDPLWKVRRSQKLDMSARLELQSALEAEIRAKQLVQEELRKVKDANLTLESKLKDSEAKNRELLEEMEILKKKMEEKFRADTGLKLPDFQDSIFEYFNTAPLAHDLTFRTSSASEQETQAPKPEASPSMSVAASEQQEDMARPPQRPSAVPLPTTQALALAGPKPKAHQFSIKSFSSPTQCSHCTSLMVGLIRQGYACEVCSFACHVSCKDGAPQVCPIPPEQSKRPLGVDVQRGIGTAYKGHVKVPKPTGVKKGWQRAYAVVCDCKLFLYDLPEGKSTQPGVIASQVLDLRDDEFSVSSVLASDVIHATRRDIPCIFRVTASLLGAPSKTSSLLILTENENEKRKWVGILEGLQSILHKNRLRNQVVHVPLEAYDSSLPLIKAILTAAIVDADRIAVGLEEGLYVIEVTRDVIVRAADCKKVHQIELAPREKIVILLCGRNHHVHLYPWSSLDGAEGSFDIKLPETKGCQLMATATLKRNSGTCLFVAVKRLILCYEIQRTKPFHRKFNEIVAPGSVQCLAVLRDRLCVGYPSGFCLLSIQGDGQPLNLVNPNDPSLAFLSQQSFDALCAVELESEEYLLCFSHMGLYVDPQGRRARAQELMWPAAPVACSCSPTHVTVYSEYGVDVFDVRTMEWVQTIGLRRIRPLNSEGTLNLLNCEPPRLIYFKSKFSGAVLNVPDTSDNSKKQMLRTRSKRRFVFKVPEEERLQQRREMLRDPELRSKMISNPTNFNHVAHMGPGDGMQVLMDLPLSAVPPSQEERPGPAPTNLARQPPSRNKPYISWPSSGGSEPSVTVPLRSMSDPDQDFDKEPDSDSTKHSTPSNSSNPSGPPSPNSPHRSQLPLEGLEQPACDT
Chain of FYN (P06241 whole entry): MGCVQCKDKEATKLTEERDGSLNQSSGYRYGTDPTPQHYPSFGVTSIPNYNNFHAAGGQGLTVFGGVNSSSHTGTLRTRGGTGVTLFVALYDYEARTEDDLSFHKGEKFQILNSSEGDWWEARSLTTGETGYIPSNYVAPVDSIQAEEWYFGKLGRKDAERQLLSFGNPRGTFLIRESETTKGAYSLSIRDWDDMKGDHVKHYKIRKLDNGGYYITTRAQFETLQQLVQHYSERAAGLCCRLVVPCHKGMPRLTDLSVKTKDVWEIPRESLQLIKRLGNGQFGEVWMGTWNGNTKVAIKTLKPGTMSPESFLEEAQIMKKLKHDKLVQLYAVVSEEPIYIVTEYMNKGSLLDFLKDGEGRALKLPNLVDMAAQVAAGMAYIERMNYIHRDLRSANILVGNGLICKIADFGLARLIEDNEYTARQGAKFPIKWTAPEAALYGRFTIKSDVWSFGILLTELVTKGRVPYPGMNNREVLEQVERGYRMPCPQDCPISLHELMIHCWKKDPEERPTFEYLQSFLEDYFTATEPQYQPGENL
Chain of JNK2 (P45984 whole entry): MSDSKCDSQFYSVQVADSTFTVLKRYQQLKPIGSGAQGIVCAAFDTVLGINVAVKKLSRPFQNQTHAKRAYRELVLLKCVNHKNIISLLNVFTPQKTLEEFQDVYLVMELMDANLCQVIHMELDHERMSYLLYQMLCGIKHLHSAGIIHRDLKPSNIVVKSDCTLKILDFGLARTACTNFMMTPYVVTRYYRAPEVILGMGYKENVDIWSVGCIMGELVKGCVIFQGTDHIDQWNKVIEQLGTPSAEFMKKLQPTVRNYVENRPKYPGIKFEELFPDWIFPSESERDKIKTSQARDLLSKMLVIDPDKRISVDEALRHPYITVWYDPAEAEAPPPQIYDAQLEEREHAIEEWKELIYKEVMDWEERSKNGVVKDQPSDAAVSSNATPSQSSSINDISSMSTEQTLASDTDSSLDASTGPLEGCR
Chain of CK1-γ2 (P78368 whole entry): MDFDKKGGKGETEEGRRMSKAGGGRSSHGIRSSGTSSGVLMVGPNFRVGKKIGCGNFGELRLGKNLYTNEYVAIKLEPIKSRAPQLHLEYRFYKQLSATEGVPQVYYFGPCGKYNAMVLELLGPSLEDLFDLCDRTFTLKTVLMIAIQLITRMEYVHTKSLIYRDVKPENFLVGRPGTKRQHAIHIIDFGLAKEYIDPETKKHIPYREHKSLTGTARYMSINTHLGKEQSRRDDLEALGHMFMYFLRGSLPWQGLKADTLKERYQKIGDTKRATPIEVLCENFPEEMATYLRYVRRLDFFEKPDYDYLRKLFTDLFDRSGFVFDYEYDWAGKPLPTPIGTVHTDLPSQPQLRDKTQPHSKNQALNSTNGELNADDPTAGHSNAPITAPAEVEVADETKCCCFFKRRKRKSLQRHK
Chain of BRK (Q13882 whole entry): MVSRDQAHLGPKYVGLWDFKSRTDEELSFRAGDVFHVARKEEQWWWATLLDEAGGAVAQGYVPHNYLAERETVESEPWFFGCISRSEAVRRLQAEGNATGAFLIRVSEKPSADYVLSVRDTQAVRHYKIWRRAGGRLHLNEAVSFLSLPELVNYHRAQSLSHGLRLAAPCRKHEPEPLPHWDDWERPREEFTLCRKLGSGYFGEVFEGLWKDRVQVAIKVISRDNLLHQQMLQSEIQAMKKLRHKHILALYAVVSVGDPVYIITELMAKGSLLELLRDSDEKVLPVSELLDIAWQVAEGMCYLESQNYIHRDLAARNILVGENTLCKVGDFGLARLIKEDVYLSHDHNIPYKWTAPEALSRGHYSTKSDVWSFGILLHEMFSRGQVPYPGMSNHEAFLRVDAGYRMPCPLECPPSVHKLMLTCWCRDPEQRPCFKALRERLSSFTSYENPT
Chain of MNK2 (Q9HBH9 whole entry): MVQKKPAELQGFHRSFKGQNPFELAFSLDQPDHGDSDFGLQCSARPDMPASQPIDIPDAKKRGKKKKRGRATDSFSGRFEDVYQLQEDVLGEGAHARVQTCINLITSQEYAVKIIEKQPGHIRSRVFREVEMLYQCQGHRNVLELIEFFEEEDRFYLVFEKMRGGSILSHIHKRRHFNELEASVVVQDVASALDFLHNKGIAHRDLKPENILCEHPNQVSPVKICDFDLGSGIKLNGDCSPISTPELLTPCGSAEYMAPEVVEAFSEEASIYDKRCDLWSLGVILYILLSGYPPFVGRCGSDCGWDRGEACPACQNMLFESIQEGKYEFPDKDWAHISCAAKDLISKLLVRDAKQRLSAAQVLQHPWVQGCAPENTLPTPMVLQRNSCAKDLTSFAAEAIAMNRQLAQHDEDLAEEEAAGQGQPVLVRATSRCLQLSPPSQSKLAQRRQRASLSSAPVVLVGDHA

Row | SMILES | inhibition at 0.1 µM (EPH-A4) | inhibition at 1 µM (EPH-A4) | inhibition at 0.1 µM (CAMK4) | inhibition at 1 µM (CAMK4) | inhibition at 0.1 µM (CK1-γ2) | inhibition at 1 µM (CK1-γ2) | inhibition at 0.1 µM (TEC) | inhibition at 1 µM (TEC) | inhibition at 0.1 µM (CDK2/cyclinE) | inhibition at 1 µM (CDK2/cyclinE) | inhibition at 0.1 µM (JNK2) | inhibition at 1 µM (JNK2) | inhibition at 0.1 µM (MRCK-β) | inhibition at 1 µM (MRCK-β) | inhibition at 0.1 µM (BRK) | inhibition at 1 µM (BRK) | inhibition at 0.1 µM (BRSK2) | inhibition at 1 µM (BRSK2) | inhibition at 0.1 µM (MNK2) | inhibition at 1 µM (MNK2) | also measured
1 | COc1cc(-c2cc(-c3ccc(N4CCNCC4)cc3)cnc2N)cc(OC)c1OC [Compound 15, 5-(4-(piperazin-1-yl)phenyl)-3-(3,4,5-trimethoxyphenyl)pyridin-2-amine] | -1% | 45% | 21% | -1% | 3% | 12% | 5% | 24% | 1% | 2% | 2% | 3% | 3% | 22% | 43% | 92% | 1% | 2% | 1% | 7% | inhibition at 0.1 µM (PIM3): 1%; inhibition at 1 µM (PIM3): -1%; inhibition at 0.1 µM (FYN): 40%; inhibition at 1 µM (FYN): 79%
2 | COc1cc(-c2cc(-c3ccc(N4CCNCC4)cc3)cnc2C)cc(OC)c1OC [Compound 10, 1-(4-(6-methyl-5-(3,4,5-trimethoxyphenyl)pyridin-3-yl)phenyl)piperazine] | 7% | 5% | 0% | -1% | 1% | 4% | 0% | 0% | -1% | 3% | 0% | 2% | 0% | 0% | 7% | 36% | 2% | 1% | 6% | 6% | inhibition at 0.1 µM (PIM3): 3%; inhibition at 1 µM (PIM3): 4%; inhibition at 0.1 µM (FYN): 8%; inhibition at 1 µM (FYN): 36%
